Source: article PMC12555100, “Dextromethorphan Versus Dextrorphan: A Quantitative Comparison of Antitussive Potency Following Separate Administration of Metabolite” (Journal of Clinical Pharmacology, 2025)
Converted amounts (≈) assume the structure as drawn. “Also recorded” adds a separate entry of the source. Like-named read-outs stand apart in the source and are kept apart here.

Assays:
[1] = animal study; cited from earlier work
[2] = Plasma concentrations of DEX and unconjugated DOR (HPLC), model-independent pharmacokinetics; assay type: in vivo, human; settings: for 24‐h plasma concentration: almost all subjects (except in 2 cases); for AUC / Cmax / Tmax: both sexes, human, oral
Text: (§1) The clinical trial has been performed according to the Declaration of Helsinki and was approved by the North Sheffield Research and Ethics Committee (approval number NS98/183). All participants enrolled into the clinical trial have given informed consent. Data were collected from twenty‐three healthy non‐smoker volunteers (12 male) aged 19‐51 years who took part in a double‐blind randomized placebo controlled cross‐over study. […] The exclusion criteria were respiratory tract infection or acute cough within the last 4 weeks, receiving any medication within previous 2 weeks, and any medical condition which may interfere with the study. Preceding the visit day, the volunteer was asked to fast for 8 h, abstain from alcohol, and abstain from caffeinated drinks throughout the study day. Written informed consent was obtained from all volunteers. The study was approved by the […] Research and Ethics Committee. Subjects' cough response to citric acid challenge test was studied on three separate occasions (separated at least 7 days apart) following administration of (i) placebo; (ii) 40.5 mg dextromethorphan hydrobromide; (iii) 44.6 mg of dextrorphan‐D‐tartrate. The order of treatments (placebo, DEX, and DOR) was randomized across participants using a balanced Latin square design to ensure equal distribution of sequence effects. Blood samples for PK analysis were taken periodically (at 0, 1, 2, 3, 4, 5, 6, 8, 10, 12, and 24 h post administration of DEX and DOR).
Plasma concentrations of DEX and unconjugated DOR were determined using high‐performance liquid chromatography with fluorometric detection according to the method of Chen et al.[25] The intra‐assay coefficient of variation for these analyses at a concentration of 2.5 ng/mL ranged from 6% to 13%. The lower limits of quantification were determined to be 0.3 ng/mL for DOR and 0.5 ng/mL for DEX.
(§2) The percent of change in cough number relative to the baseline (t = 0) was plotted against time and the maximum reduction in cough response (Emax) and its […] (TEmax) were determined. The area under the percent of reduction in cough number against time between 0 until 24 h (AUEC0‐24 h) was calculated using the trapezoidal rule. The correlation between AUEC0‐24 h and area under plasma concentration time between zero and 24 h (AUC0‐24 h) of DEX, (endogenously) formed DOR and directly administered DOR was statistically examined using Spearman rank correlation test. The Friedman test (followed by Dunn's multiple comparison) was used to compare the AUC values of DEX and DOR, as well as the AUEC values, between the different arms of the study.

[3] = system: cough response to citric acid challenge; experiment: Citric acid cough challenge test, model-independent analysis of antitussive effect; assay type: in vivo, human; settings: for Emax, maximum percentage of cough number reduction, mean: mean of 23 healthy volunteers, change relative to baseline; for Emax, maximum percentage of cough number reduction, mean / Emax, maximum percentage of cough number reduction, median: after 40.5 mg dextromethorphan hydrobromide or 44.6 mg dextrorphan-D-tartrate; for AUEC0‐24 h, mean / AUEC0‐24 h, median: area under percent reduction in cough number vs time 0-24 h; for AUEC0‐24 h, mean / TEmax, time of maximum percentage of reduction in cough number, mean / AUEC0‐24 h, median / TEmax, time of maximum percentage of reduction in cough number, median: healthy volunteers; for TEmax, time of maximum percentage of reduction in cough number, mean / TEmax, time of maximum percentage of reduction in cough number, median: after DEX or DOR administration; for Emax, maximum percentage of cough number reduction, median: median of 23 healthy volunteers; for Emax and TEmax compared between DEX, DOR and placebo arms: model-independent analysis; for Antitussive effect (AUEC0‐24 h) compared between DEX, DOR and placebo arms: model-independent pairwise analysis, Friedman test with Dunn's multiple comparison
Text: as §1
Details of the cough challenge test were described previously.[24] In summary, cough was produced by five inhalations of 3 mL 10% w/v citric acid (placed in a nebulizing chamber) over 5 min. Prior to randomization, all volunteers underwent a two‐part screening process. Volunteers who coughed between 7 and 14 times following five inhalations of a 10% citric acid solution at the first visit, were considered eligible for further screening. The second visit evaluated both interday and intraday cough response consistency. The acceptable level of variability in cough frequency was established as no more than 20% between separate days and within a single day across three separate measurements. The frequency of cough response was measured at baseline (prior to placebo or drug administration, t = −1 h) and at regular intervals up to 24 h. Cough measurements were obtained at the same time points as blood sampling.
as §2

[4] = cited from earlier work
[5] = system: antitussive effect (cough); design: method as in PMID 12848776; settings: cited from earlier work
[6] = system: guinea pig brain slices; design: method as in PMID 2897648; settings: cited from earlier work
[7] = plasma, mean, plasma, the administered compound itself (40.5 mg DEX HBr or 44.6 mg DOR-D-tartrate), unconjugated DOR, read-out: AUC0‐24 h, mean
[8] = plasma, mean, plasma, the administered compound itself (40.5 mg DEX HBr or 44.6 mg DOR-D-tartrate), unconjugated DOR, read-out: Cmax, mean
[9] = plasma, mean, plasma, the administered compound itself (40.5 mg DEX HBr or 44.6 mg DOR-D-tartrate), unconjugated DOR, read-out: Tmax, mean
[10] = plasma, median, plasma, the administered compound itself, read-out: AUC0‐24 h, median
[11] = plasma, median, plasma, the administered compound itself, read-out: Tmax, median

Structure (SMILES)	24‐h plasma concentration [2]	AUC [2, 7]	Cmax [2, 8]	Tmax [2, 9]	AUC [2, 10]	Tmax [2, 11]	Emax, maximum percentage of cough number reduction, mean [3]	AUEC0‐24 h, mean [3]	TEmax, time of maximum percentage of reduction in cough number, mean [3]	Emax, maximum percentage of cough number reduction, median [3]	AUEC0‐24 h, median [3]	TEmax, time of maximum percentage of reduction in cough number, median [3]	Emax and TEmax compared between DEX, DOR and placebo arms [3]	Antitussive effect (AUEC0‐24 h) compared between DEX, DOR and placebo arms [3]	Antiepileptic activity [6]	other results
CN1CC[C@@]23CCCC[C@@H]2[C@@H]1Cc1ccc(O)cc13 [DOR, dextrorphan]	below the limit of quantitation	17.4 ng·h/mL	4.1 ng/mL	1.1 h	18.9 ng·h/mL	1 h	−45%	−189 %hr	6.3 h	−46%	−170 %hr	5.5 h	no significant differences	no significant difference; also recorded: did not reveal a statistically significant difference; also recorded: failed to show any statistical difference	possess antiepileptic activity	Antitussive activity [1]: good antitussive activity comparable to that of DEX; Tolerability compared with DEX [1]: better tolerability; Toxicity compared with DEX [1]: lower toxicity; Cmax and Tmax of formed DOR compared with direct administration of DOR ([2]; Friedman and Dunn's tests): not statistically different; AUC0−24 h of formed DOR (from DEX metabolism) compared with direct administration of DOR ([2]; Friedman and Dunn's tests, P‐value = .003, higher molar dose of DOR than of DEX): significantly higher; Cmax ([2]; plasma, median, plasma, the administered compound itself, read-out: Cmax, median): 3.8 ng/mL; Plasma concentration of DOR relative to DEX after administration of DEX ([2]; majority of measurement times): up to twofold higher; Water solubility [4]: > 10000 µg/mL; Relative potency of DOR compared to DEX ([5]; modelling of quinidine interaction study, no separate DOR arm): 38%; IC50 ([5]; total concentration of DOR (conjugated with glucuronic acid and unconjugated)): 3.2 ng/mL (≈ 0.0124 µM)
COc1ccc2c(c1)[C@]13CCCC[C@@H]1[C@H](C2)N(C)CC3 [DEX, dextromethorphan]	below the limit of quantitation	26.7 ng·h/mL	3.5 ng/mL	1.8 h	16.7 ng·h/mL	1 h	−46%	−299 %hr	3.9 h	−44%	−286 %hr	3.0 h	no significant differences	no significant difference	possess antiepileptic activity	Cmax, median ([2]; median, plasma, the administered compound itself): 2.2 ng/mL
